Data taken from patent publication US5250542A, “Peripherally selective piperidine carboxylate opioid antagonists” (Eli Lilly and Company, priority 1992, dated 1993).
Counter-ions that a name gives are not always drawn. Like-named read-outs stand apart in the source and are kept apart here.

What was measured:
[1] = molecular target: T1, peripheral opioid receptors (Mus musculus, UniProt P42866); assay: precipitated diarrhea in morphine-maintained mice (peripheral opioid activity) and comparison with the writhing test; format: in vivo; conditions: for Ratio (AD50 mouse writhing test / ED50 mouse diarrhea test): higher ratio = greater relative antagonism of peripheral opioid receptors; for ED50: mouse, 0.5 h, morphine-maintained mice, antagonist subcutaneous or oral, 30 min observation
T1 construct: Mice maintained (6 mice/cage) on 0.01M saccharin water with 1 g/1 morphine sulfate; from tissue; host or cells: living morphine-maintained mice (in vivo test; endogenous receptor)
Outline: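 Morphine-dependent mice (1 g/l morphine sulfate in drinking water ≥10 days, withdrawn 45 min before dosing) received antagonist subcutaneously or orally, 5 mice/dose. Diarrhea (and jumping) were scored over 30 min and doses lowered to find the diarrhea threshold. Peripheral selectivity was taken as writhing AD50 divided by diarrhea ED50.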

mu receptor = molecular target: T2, mu receptor (Rattus norvegicus, UniProt P33535); assay: opioid receptor binding assay, [3H] NAL (tritiated naloxone), mu receptor; design: species or system rat (Male Sprague Dawley), brain minus cerebellum
T2 construct: rat whole brain minus cerebellum for mu was homogenized; from tissue; host or cells: brain of male Sprague Dawley rats, whole brain minus cerebellum, homogenate fraction
Outline: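 Displacement of [3H]naloxone was measured on rat whole brain minus cerebellum membranes, preincubated 20 min and incubated 20 min at 37° C, with filtration separating bound ligand. Ki was derived from IC50 and ligand KD. Percent displacement was also recorded at 10 nM and 100 nM test compound.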

opioid receptor = molecular target: T3, opioid receptor (Mus musculus, UniProt P42866); assay: mouse writhing analgesis test: block of morphine-induced analgesia; format: in vivo, CF-1 male mice; design: unit not given here; conditions: dose of antagonist that reduced the inhibition of writhing produced by 1.25 mg/kg morphine sulfate to 50%; subcutaneous, 20 min before acetic acid
T3 construct: Five CF-1 male mice (Charles River, Portage, Mich.); from tissue; host or cells: living CF-1 male mice (in vivo test; endogenous receptor)
Outline: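 Male CF-1 mice (~20 g, fasted overnight, n=5) dosed subcutaneously 20 min before i.p. 0.6% acetic acid; writhes counted for 10 min starting 5 min post-injection. Antagonism measured as blockade of morphine-induced inhibition of writhing, percent versus vehicle controls; ED50 defined as 50% writhing inhibition.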

[2] = 20 min, read-out: % displacement at 10 nM, 10 nM test compound, [3H] naloxone 0.5 nM
[3] = 20 min, read-out: % displacement at 100 nM, 100 nM test compound, [3H] naloxone 0.5 nM
[4] = 20 min, read-out: % displacement at 100 nM

T2 sequence (P33535 whole entry): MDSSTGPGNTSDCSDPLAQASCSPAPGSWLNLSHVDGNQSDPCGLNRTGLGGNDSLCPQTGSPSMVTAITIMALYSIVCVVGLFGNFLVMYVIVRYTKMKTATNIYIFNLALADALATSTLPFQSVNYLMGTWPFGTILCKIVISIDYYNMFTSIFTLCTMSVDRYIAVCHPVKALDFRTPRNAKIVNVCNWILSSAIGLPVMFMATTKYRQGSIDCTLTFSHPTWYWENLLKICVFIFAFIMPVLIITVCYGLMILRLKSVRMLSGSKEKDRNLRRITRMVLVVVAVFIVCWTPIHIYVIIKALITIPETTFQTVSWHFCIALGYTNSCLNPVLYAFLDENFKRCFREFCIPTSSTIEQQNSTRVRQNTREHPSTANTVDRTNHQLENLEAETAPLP
T3 sequence (P42866 whole entry): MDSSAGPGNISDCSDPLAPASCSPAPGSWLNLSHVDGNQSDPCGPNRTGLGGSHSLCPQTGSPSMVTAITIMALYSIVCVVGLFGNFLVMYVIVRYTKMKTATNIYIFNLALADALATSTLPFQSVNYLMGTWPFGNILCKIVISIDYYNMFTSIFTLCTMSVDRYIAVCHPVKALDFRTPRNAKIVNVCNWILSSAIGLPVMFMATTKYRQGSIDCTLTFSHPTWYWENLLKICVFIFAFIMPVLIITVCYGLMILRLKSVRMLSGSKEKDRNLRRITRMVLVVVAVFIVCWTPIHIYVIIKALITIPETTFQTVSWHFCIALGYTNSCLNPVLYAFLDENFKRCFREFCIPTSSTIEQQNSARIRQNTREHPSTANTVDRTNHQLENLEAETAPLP
T1 sequence (P42866 whole entry): as above

SMILES | Ratio (AD50 mouse writhing test / ED50 mouse diarrhea test) [1] | ED50 [1] | Ki (mu receptor) | inhibition at 0.01 µM (mu receptor; [2]) | inhibition at 0.1 µM (mu receptor; [3]) | AD50 (opioid receptor) | inhibition at 0.1 µM (mu receptor; [4]) | inhibition at 0.01 µM (mu receptor; 20 min, read-out: % displacement at 10 nM) | Ki (mu receptor; [3H] naloxone 0.5 nM, pH 7.4, 37° C., 20 min, read-out: Ki)
CCOC(=O)CCNC(=O)C(CC1CCCCC1)CN1CC[C@@](C)(c2cccc(O)c2)[C@@H](C)C1 (stereo partly drawn) [Example 36, 3-[[2-(cyclohexylmethyl)-3-[4-(3-hydroxyphenyl)-3,4-dimethyl-1-piperidinyl]-1-oxo-propyl]amino]propanoic acid ethyl ester monohydrochloride] | 12 | 0.32 mg/kg | 470 pM | 79% | 86% | 3.8 |  |  | 
CCNC(=O)CCNC(=O)C(CC1CCCCC1)CN1CC[C@@](C)(c2cccc(O)c2)[C@@H](C)C1 (stereo partly drawn) [Example 37, monohydrochloride] | 43 | 0.09 mg/kg | 1090 pM | 93% |  | 3.9 | 97% |  | 
C[C@H]1CN(CC(CC2CCCCC2)C(=O)NCCC(N)=O)CC[C@@]1(C)c1cccc(O)c1 (stereo partly drawn) [Example 38, 3-[[1-oxo-2-cyclohexylmethyl)-3-[4-(3-hydroxyphenyl)-3,4-dimethyl-1-piperidinyl]propyl]-amino]propanamide hydrochloride] | > 667 | 0.06 mg/kg | 480 pM | 98% | 99% | > 40 |  |  | 
CCOC(=O)CCCNC(=O)C(CC1CCCCC1)CN1CC[C@@](C)(c2cccc(O)c2)[C@@H](C)C1 (stereo partly drawn) [Example 39, 4-[[3-[3,4-dimethyl-4-(3-hydroxyphenyl)-1-piperidinyl]-2-(cyclohexhymethyl)-1-oxopropyl]-amino]butanoic acid ethyl ester monohydrochloride] | 18 | 0.66 mg/kg | 3750 pM | 91% |  | 11.9 | 98% |  | 
C[C@H]1CN(CC(CC2CCCCC2)C(=O)NCCCC(N)=O)CC[C@@]1(C)c1cccc(O)c1 (stereo partly drawn) [Example 40, 4-[[1-oxo-2-(cyclohexylmethyl)-3-[4-(3-hydroxyphenyl)-3,4-dimethyl-1-piperidinyl]propyl]-amino]butanamide hydrochloride] | 3.5 | 1.3 mg/kg | 750 pM | 95% | 100% | 4.5 |  |  | 
CNC(=O)CCCNC(=O)C(CC1CCCCC1)CN1CC[C@@](C)(c2cccc(O)c2)[C@@H](C)C1 (stereo partly drawn) [Example 41, N-[4-(methylamino)-4-oxobutyl]-3-[4-(3-hydroxyphenyl)-3,4-dimethyl-1-piperidinyl]-2-cyclohexylmethylpropanamide monohydrochloride] | 26 | 0.17 mg/kg | 390 pM | 100% | 100% | 4.5 |  |  | 
CCNC(=O)CCCNC(=O)C(CC1CCCCC1)CN1CC[C@@](C)(c2cccc(O)c2)[C@@H](C)C1 (stereo partly drawn) [Example 42, N-[4-(ethylamino)-4-oxobutyl]-3-[4-(3--hydroxyphenyl)-3,4-dimethyl-1-piperidinyl[-2-cyclohexyl-methylpropanamide monohydrate hydrochloride] | 8 | 0.26 mg/kg | 570 pM | 100% |  | 2.1 | 97% |  | 
CCOC(=O)CNC(=O)C(Cc1ccccc1)CN1CC[C@@](C)(c2cccc(O)c2)[C@@H](C)C1 (stereo partly drawn) [Example 43, 2-[3-[4-(3-hydroxyphenyl)-3,4-dimethyl-1-piperidinyl]-1-oxo-2-(phenylmethyl)propyl]-amino]acetic acid ethyl ester hydrochloride] | 146 | 0.013 mg/kg | 640 pM | 98% | 99% | 1.9 |  |  | 
C[C@H]1CN(CC(Cc2ccccc2)C(=O)NCC(=O)O)CC[C@@]1(C)c1cccc(O)c1 (stereo partly drawn) [Example 44, 2-[[3-[4-(3-hydroxyphenyl)-3,4-dimethyl-1-piperidinyl]-1-oxo-2-(phenylmethyl)propyl]-amino]acetic acid monohydrate] | > 266 | 0.15 mg/kg |  |  |  | > 40 | 94% | 87% | 890 pM
CCNC(=O)CNC(=O)C(Cc1ccccc1)CN1CC[C@@](C)(c2cccc(O)c2)[C@@H](C)C1 (stereo partly drawn) [Example 45, N-ethyl-2-[[2-(phenylmethyl-)-1-oxo-3-[4-(3-hydroxyphenyl)-3,4-dimethyl-1-piperidinyl]propyl]-amino]ethanamide] | 11 | 0.24 mg/kg | 1280 pM | 93% |  | 2.6 | 98% |  | 
C[C@H]1CN(CC(Cc2ccccc2)C(=O)NCC(N)=O)CC[C@@]1(C)c1cccc(O)c1 (stereo partly drawn) [Example 46, N-(2-amino-2-oxoethyl)-3-[3,4-dimethyl-4-(3-hydroxyphenyl)-1-piperidinyl]-2-phenylmethyl propanamide monohydrochloride monohydrate] | 571 | 0.07 mg/kg | 310 pM | 99% | 95% | 40 |  |  | 
C[C@H]1CN(CC(Cc2ccccc2)C(=O)NCC(=O)N(C)C)CC[C@@]1(C)c1cccc(O)c1 (stereo partly drawn) [Example 47, N,N-dimethyl-2-[[3-4-(3-hydroxyphenyl)-3,4-dimethyl-1-piperidinyl]-2-(phenylmethyl)-1-oxypropyl]amino]acetamide monohydrochloride monohydrate] | 267 | 0.15 mg/kg | 2110 pM | 89% | 95% | 40 |  |  | 
CC(C)NC(=O)CNC(=O)C(Cc1ccccc1)CN1CC[C@@](C)(c2cccc(O)c2)[C@@H](C)C1 (stereo partly drawn) [Example 48, N-(1-methylethyl)-2-[[3-[4-(3-hydroxyphenyl)-3,4-dimethyl-1-piperidinyl]-2-(phenylmethyl)-1-oxopropyl]amino]acetamide hydrochloride monohydrate] | > 400 | 0.1 mg/kg | 1820 pM | 96% | 100% | > 40 |  |  | 
CCCNC(=O)CNC(=O)C(Cc1ccccc1)CN1CC[C@@](C)(c2cccc(O)c2)[C@@H](C)C1 (stereo partly drawn) [Example 49, N-2-propylamino-2-oxoethyl]-3-[4-(3-hydroxyphenyl)-3,4-dimethyl-1-piperidinyl]-2-phenylmethyl propanamide monohydrate hydrochloride] | 61 | 0.1 mg/kg | 540 pM | 98% | 100% | 6.08 |  |  | 
CC(C)CNC(=O)CNC(=O)C(Cc1ccccc1)CN1CC[C@@](C)(c2cccc(O)c2)[C@@H](C)C1 (stereo partly drawn) [Example 50, N-2-[(2-methylpropyl)amino]-2-oxo-ethyl]-3-[3,4-dimethyl-4-(3-hydroxyphenyl)-1-piperidinyl-2-phenylmethyl propanamide monohydrate hydrochloride] | 26 | 0.54 mg/kg | 1200 pM | 94% | 100% | 14.3 |  |  | 
